# Experimental data from paper PMC10465243, “Identification of sucrose synthase from Micractinium conductrix to favor biocatalytic glycosylation” (Frontiers in Microbiology, 2023).
# Biological target: T1, UGT76G1 (Stevia rebaudiana, UniProt Q6VAB4, S195Q)
# T1 construct: codon-optimised gene in pRSFDuet-1 (NdeI/XhoI), co-expressed with a SuSy in E. coli BL21(DE3), crude extract
# Assay: HPLC of RebD and RebM, one-pot coupled with McSuSy S31D, E. coli crude extract
# Type: biochemical
# Conditions: sucrose, UDP recycling, potassium phosphate pH 7.2, 40°C; RebD formed in situ as intermediate
# T1 sequence (Q6VAB4 whole entry S195Q): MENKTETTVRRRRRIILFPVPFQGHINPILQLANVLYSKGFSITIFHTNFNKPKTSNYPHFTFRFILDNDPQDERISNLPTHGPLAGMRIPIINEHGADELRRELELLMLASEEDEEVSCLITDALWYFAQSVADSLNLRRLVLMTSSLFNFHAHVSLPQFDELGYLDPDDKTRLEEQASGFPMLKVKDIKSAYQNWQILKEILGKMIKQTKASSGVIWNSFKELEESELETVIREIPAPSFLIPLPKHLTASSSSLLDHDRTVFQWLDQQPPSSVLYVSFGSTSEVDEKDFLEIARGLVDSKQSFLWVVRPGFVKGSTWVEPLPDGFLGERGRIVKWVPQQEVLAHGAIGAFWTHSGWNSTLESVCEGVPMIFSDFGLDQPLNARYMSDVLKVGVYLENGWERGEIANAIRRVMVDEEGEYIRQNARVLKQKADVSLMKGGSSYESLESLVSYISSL
structure (smiles),measurement,value
C=C1C[C@@]23CC[C@H]4[C@@](C)(CCC[C@@]4(C)C(=O)O[C@@H]4O[C@H](CO)[C@@H](O)[C@H](O)[C@H]4O[C@@H]4O[C@H](CO)[C@@H](O)[C@H](O)[C@H]4O)[C@@H]2CC[C@]1(O[C@@H]1O[C@H](CO)[C@@H](O)[C@H](O[C@@H]2O[C@H](CO)[C@@H](O)[C@H](O)[C@H]2O)[C@H]1O[C@@H]1O[C@H](CO)[C@@H](O)[C@H](O)[C@H]1O)C3 [RebD],"HPLC of RebD and RebM, one-pot coupled with McSuSy S31D, E. coli crude extract",second glycosylation reaction that RebD was converted into RebM by UGT76G1_S195Q
